Measured values as given in patent publication US10702489B2, “Treatment of nervous system disorders using combinations of RXR agonists and thyroid hormones” (IO Therapeutics, Inc., priority 2015, dated 2020).
Entries after “also recorded” stand apart in the source; their conditions may differ.

Assays:
RXRα = molecular target: T1, RXRα (Homo sapiens, UniProt P19793)
T1 sequence (P19793 1-462): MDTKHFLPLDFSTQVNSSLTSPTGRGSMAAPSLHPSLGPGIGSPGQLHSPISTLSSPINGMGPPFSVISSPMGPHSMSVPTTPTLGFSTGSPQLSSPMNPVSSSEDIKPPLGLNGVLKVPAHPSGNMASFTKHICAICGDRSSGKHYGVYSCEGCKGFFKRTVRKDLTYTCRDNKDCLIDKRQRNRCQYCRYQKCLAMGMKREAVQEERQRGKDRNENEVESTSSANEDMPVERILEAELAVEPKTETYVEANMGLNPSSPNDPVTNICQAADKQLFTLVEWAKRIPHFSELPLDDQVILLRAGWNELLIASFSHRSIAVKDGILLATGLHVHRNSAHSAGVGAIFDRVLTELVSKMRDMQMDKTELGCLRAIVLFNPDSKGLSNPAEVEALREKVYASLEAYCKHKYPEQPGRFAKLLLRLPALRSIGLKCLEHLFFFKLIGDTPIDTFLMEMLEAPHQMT
Protocol: (§1) To determine whether a RXR agonist can mediate its effects via RXRα receptor homodimers, RXRβ receptor homodimers, RXRγ receptor homodimers, or any combination thereof, or the corresponding RAR/RXR heterodimers, receptor-mediated transactivation assays were performed. For transactivation assays assessing RXR homodimer signaling, CV-1 cells were transfected with 1) an expression construct including a full length RXRα, RXRβ, or RXRγ; and 2) a rCRBPII/RXRE-tk-Luc reporter construct that included RXR homodimer-specific RXRE/DR1 responsive element linked to a luciferase gene. For transactivation assays assessing RAR/RXR heterodimer signaling, CV-1 cells were transfected with 1) an expression construct comprising a fusion protein including an estrogen receptor (ER) DNA binding domain linked to the ligand binding domain of RARα, RARβ, or RARγ and 2) a ERE-tk-Luc reporter construct that included an estrogen receptor responsive element linked to a luciferase gene. […] Data are mean values±SE from five independent experiments.

RXRγ = RXRγ (Homo sapiens, UniProt P48443)
Protocol: as §1

[1] = tested on: C57BL/6 (B6) mice with experimental autoimmune encephalomyelitis (EAE); assay: EAE in C57BL/6 (B6) mice, MOG peptide; assay type: in vivo, mouse; settings: IRX4204 50 μg every other day from day 7 to day 20
Protocol: Mice were also given 200 ng of pertussis toxin in PBS administered by inter-peritoneal (i.p.) injection on the same day as MOG emulsion injection (day 0) and 2 days later (day 2). […] Mice were scored using the following scale: 0—Mice have no disease, 1—Mice have distal limp tail or rear leg weakness (paresis), 1.5—Mice have distal limp tail and rear leg weakness, 2—Mice have complete limp tail and rear leg weakness, 2.5—Mice have complete limp tail and weakness in both rear legs, 3—Mice have complete limp tail and paralysis in both rear legs, 3.5—Mice have complete limp tail, paralysis in both rear legs, and forelimb weakness. Mice receiving a score of 3.5 were immediately euthanized.

B6 mice with EAE = assay: EAE dose titration in B6 mice with spleen and CNS analysis; assay type: in vivo, mouse
Protocol: A dose titration experiment was also conducted in EAE mice. EAE was induced in 28 B6 mice with MOG/CFA and PT as above. Mice were scored on day 7 as indicated above and divided into groups by score so means are as equal as possible.
At the completion of the experiment, the vehicle control and 200 μg/day groups were euthanized and spleen and CNS samples obtained.

[2] = tested on: C57BL/6 (B6) mice with EAE; assay: CNS infiltrating cells in EAE B6 mice; assay type: in vivo, mouse; settings: day 20 after immunization
Protocol: To determine whether a RXR agonist can reduce central nervous system (CNS) infiltrating cells, C57BL/6 (B6) mice were treated as described in Example 6. On day 20 after immunization, mice were sacrificed and perfused with phosphate buffered saline (PBS). Brain and spinal cord tissue was isolated, digested with DNase and LIBERASE DL® (Roche Diagnostics, Indianapolis, Ind.) for 30 minutes, and homogenized through 70 micron nylon mesh filters. Resulting cells were placed over a Percoll gradient to remove myelin. The remaining cells (microglia and CNS infiltrating cells) were counted, stained for molecules of interest, and run on a flow cytometer. Based on the frequencies obtained by FACS of these cell populations, total cell numbers of CNS infiltrating leukocytes expressing CD45, including CD4^+ T cells and CD11c^+ CD11b^+ myeloid dendritic cells (DC), were calculated.

SJL mice with EAE = assay: EAE in SJL mice, PLP peptide; assay type: in vivo, mouse
Protocol: To determine whether a RXR agonist can attenuate multiple sclerosis, SJL mice were immunized to induce EAE by s.c. injection at the base of their spine with 200 μL of adjuvant containing 200 μg proteolipid proteins (139-151) (PLP peptide; Peptides International, Louisville, Ky.) and 400 μg of non-viable M. tuberculosis H37 desiccate emulsified in a mixture of incomplete Freund's adjuvant and PBS. Mice were also given 150 ng of pertussis toxin in PBS i.p. on the same day as PLP emulsion injection and 2 days later. […] Mice were scored using the scale described in Example 3.

Nurr1/RXR heterodimer = molecular target: T2, Nurr1/RXR heterodimer (Homo sapiens, UniProt P19793); assay: receptor transactivation assay Nurr1/RXR; assay type: cell-based; settings: COS7 cells
T2 construct: full length Nurr-1 with or without full-length RXRα plasmid; expressed in transfected cells; host or cells: COS7
Description: For PPARγ: CV-1 cells were transfected with 3×(rAOX/DR1)-tk-Luc reporter gene and an expression vector for PPARγ. For FXR:CV-1 cells were transfected with 3×(IBABP/IRI)-tk-Luc reporter gene and vectors for FXR and RXRα. For LXR:CV-1 cells were transfected with 3×(PLTP/LXRE)-tk-Luc reporter gene with vectors for LXRα or LXRβ. For Nurr1: COS7 cells were transfected with 3×NBRE-tk-luc reporter gene and full length Nurr-1 with or without full-length RXRα plasmid. […] Luciferase data were normalized to co-transfected β-gal activity. Luciferase activity was expressed as percent of maximal activity obtained using specific agonists. Rosiglitazone (PPARγ), GW4064 (FXR), T0901317 (LXR).

[3] = tested on: oligodendrocyte precursor cells (OPCs); assay: oligodendrocyte precursor cell differentiation (PLP-EGFP); assay type: cell-based, mouse
Description: OPCs were generated from a neurosphere culture of E14.5 PLP-EGFP (on C57BL/6J background) mouse brains. […] The EGFP expressing cells were quantified with Cellomics Neuronal Profiling Algorithm.
The EGFP expressing cells in controls and all compounds were quantified with Cellomics Neuronal Profiling Algorithm.

[4] = tested on: one year old rats, caudal cerebellar peduncle lesions; assay: focal ethidium bromide induced rat model of demyelination; assay type: in vivo; settings: IRX4204 10 mg/kg/day oral, thyroxine 20 ng/g s.c., 14 days
Protocol: The experiment uses rats of relatively advanced age (1 year) since such rats undergo remyelination in a less efficient manner, thereby providing data that are more relevant to the clinical treatment of human patients with multiple sclerosis or other demyelination disorders.
Focal demyelination is induced in one year old rats (approximately 300 g in weight) by injecting stereotactically 5 μl of ethidium bromide solution (0.01% vol/vol in saline) in a bilateral manner into the caudal cerebellar peduncles (CCP). […] The rats are killed on day 24 post-ethidium bromide treatment for analysis of remyelination by quantitative polymerase chain reaction (qPCR) and microscopy.

[5] = tested on: C57BL/6J mice with cuprizone+rapamycin demyelination; assay: 12-week cuprizone/rapamycin demyelination model, 6 weeks of treatment; assay type: in vivo, mouse; settings: 6 weeks of treatment after 12 weeks CR
Description: All animals were sacrificed after 12 weeks of CR or after further 6 weeks of treatment to evaluate myelin in white matter (corpus callosum) and gray matter (hippocampus and cortex). In addition, the size of myelinated axons was quantified and the large myelinated axons were further assessed by 3D-electron microscopy (3D-EM). A total of 40 animals were included in the study, where all 40 animals received CR demyelination for 12 weeks. After demyelination, a subset (n=10) of animals are sacrificed to serve as controls to assess baseline demyelination. […] Floating brain sections are immunostained with myelin prolipid protein (PLP) to visualize and quantify myelin in gray matter, hippocampus (FIG. 16A) and cortex (FIG. 16B).

[6] = tested on: C57BL/6J mice with cuprizone+rapamycin demyelination; assay type: in vivo
[7] = tested on: early Parkinson's Disease subjects; assay: open-label clinical study in early Parkinson's Disease subjects; assay type: in vivo, human; settings: for Change in TSH / Total Motor Change / Total UPDRS Change: 15 days
Protocol: An open-label, single site clinical study of early Parkinson's Disease subjects treated with IRX4204 was conducted to determine whether the preclinical promise of IRX4204 as a disease modifying agent for PD will translate to the clinical setting upon treatment of early PD patients with IRX4204 as determined by Unified Parkinson's Disease Rating Scale (UPDRS) measurements and safety assessments. The changes in UPDRS scores were correlated with circulating thyroxine levels.
Five subjects were recruited for each of the three dose levels. All fifteen subjects completed 15 days of dosing.
All subjects ([…]) completed 15 days of dosing and returned to the clinic at the end of 2 weeks (day 15-17) for UPDRS score determination and safety assessments including determination of plasma thyroxine (T4) levels. Percent changes in Total Motor scores, Total UPDRS scores and plasma T4 values were determined according to the following: […]

[8] = tested on: rat 6-OHDA induced Parkinson Disease (PD) model; assay: rat 6-OHDA induced Parkinson Disease model, paw placement (cylinder test); assay type: in vivo; settings: day 24; IRX4204 10 mg/kg PO, T3 1.5 μg/kg and T4 9 μg/kg SC
Protocol: The paw placement (cylinder test) was used for assessment of the damage. This test assessed a rat's independent forelimb use to support the body against the walls of a cylindrical enclosure. The test took advantage of the animals' innate drive to explore a novel environment by standing on the hind limbs and leaning towards the enclosing walls.
To perform this test, rats were placed individually in a glass cylinder (21 cm diameter, 34 cm height) and wall exploration was recorded for 3 minutes. No habituation to the cylinder prior to recording was allowed.
The statistical analysis was performed as ratio between the intact and impaired legs (R/L ratio). The ratio was expressed as the values of intact right+both forelimbs divided by the values of impaired left +both forelimbs. A lower value of the ratio means greater healing of the 6-OHDA induced brain damage.
Once a week during three weeks (study days 10, 17 and 24), the animals were re-tested for their performance in the paw placement test.

[9] = tested on: mouse oligodendrocyte progenitor cells (OPCs); assay: mouse OPC differentiation with IRX4204 and T3; assay type: cell-based; settings: 5-day treatment; IRX4204 10, 1, 0.1 nM
Protocol: OPCs were derived from plp-EGFP expressing mice.
Therapeutic agents were tested in 96-well plates (6 wells per concentration). […] All media contained 0.1% DMSO. At the end of the 5-day treatment, cells were imaged on Cellomics in two channels and algorithms were used to count nuclei and EGFP+oligodendrocytes.

[10] = 200 μg/day, restimulation with PMA/Ionomycin
[11] = 50 μg i.p. every other day from day 7, n=6

T2 sequence (P43354 whole entry partner, one chain of several): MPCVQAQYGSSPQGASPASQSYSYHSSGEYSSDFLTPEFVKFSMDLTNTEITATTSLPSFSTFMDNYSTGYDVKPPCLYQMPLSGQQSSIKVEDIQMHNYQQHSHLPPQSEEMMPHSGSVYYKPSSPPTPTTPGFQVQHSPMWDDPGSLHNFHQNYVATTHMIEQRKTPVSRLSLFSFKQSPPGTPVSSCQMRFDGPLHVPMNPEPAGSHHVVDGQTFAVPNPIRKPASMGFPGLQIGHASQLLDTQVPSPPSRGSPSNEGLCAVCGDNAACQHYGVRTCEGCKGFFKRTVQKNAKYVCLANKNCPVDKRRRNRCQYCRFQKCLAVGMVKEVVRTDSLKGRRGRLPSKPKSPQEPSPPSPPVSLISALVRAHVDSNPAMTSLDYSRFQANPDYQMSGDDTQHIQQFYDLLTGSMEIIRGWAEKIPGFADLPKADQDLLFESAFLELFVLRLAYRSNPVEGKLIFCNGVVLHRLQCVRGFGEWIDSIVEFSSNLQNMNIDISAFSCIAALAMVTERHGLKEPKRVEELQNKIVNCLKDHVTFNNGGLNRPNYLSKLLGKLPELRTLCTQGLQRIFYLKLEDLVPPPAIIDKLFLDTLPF
Sequence of RXRγ (P48443 whole entry): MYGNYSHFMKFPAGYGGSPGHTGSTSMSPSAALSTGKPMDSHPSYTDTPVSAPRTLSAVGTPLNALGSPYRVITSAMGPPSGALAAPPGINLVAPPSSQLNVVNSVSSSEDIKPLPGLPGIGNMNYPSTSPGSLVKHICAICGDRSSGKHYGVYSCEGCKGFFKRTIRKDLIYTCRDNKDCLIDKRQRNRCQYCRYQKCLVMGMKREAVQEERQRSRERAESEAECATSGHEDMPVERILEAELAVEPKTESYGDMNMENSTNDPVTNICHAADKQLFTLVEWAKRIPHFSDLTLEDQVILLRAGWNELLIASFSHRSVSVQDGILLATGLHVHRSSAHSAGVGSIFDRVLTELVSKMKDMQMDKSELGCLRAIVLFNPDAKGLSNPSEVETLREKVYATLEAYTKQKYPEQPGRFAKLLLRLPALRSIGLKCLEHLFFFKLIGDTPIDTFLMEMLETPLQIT

Structure (SMILES): CC(/C=C/[C@@H]1C[C@]1(C)c1ccc2c(c1)C(C)(C)CCC2(C)C)=C\C(=O)O [IRX4204, 3,7-dimethyl-6(S),7(S)-methano,7-[1,1,4,4-tetramethyl-1,2,3,4-tetrahydronaphth-7-yl]2(E),4(E) heptadienoic acid]
- Efficacy (% of 1 μM IRX4204) RXRα (RXRα; CV-1 cells): 100 % of 1 μM IRX4204
- more potent in activating RXR receptors rather than RAR receptors (RXRα; RXR versus RAR receptors): > 1,000 fold
- Efficacy (% of 1 μM IRX4204) RXRγ (RXRγ): 100 % of 1 μM IRX4204
- symptoms of EAE (scores of disease severity over time) [1]: significantly reduces the symptoms of EAE
- disease overall (EAE score) (B6 mice with EAE; 50 μg, 100 μg or 200 μg every day from day 8): significantly less disease overall
- CCR6 expression on CD4 T cells, spleen (B6 mice with EAE; 200 μg/day): lowered
- CD4+ CD25hi cells (number), spleen (B6 mice with EAE; 200 μg/day): reduced
- co-expression of IFNg and IL-17A by CD4 T cells in CNS (B6 mice with EAE; 200 μg/day): not significantly different between groups
- frequency of CD4+ CD25hi cells, spleen (B6 mice with EAE; 200 μg/day): not altered
- total number of effector and memory CD4 T cells (CD44), spleen (B6 mice with EAE; 200 μg/day): decreased
- total number of infiltrating CD4 T cells in the CNS (B6 mice with EAE; 200 μg/day): reduced
- total number of recently activated CD4 T cells (CD69 and CD44), spleen (B6 mice with EAE; 200 μg/day): decreased
- IFNγ, CNS infiltrating lymphocytes (B6 mice with EAE; [10]): significantly reduced
- TNF, CNS infiltrating lymphocytes (B6 mice with EAE; [10]): significantly reduced
- infiltration of CD4+ cells in to the CNS [2]: significant reduction
- infiltration of CD11c+ CD11b+ cells (myeloid DC) in to the CNS [2]: significant reduction
- Mean Maximum Score (SJL mice with EAE; 50 μg i.p. every other day from day 7): 1.5 ± 1.4
- Death from Disease (SJL mice with EAE; [11]): 0/6
- Disease Incidence (SJL mice with EAE; [11]): 4/6
- symptoms of EAE (scores of disease severity) (SJL mice with EAE; 50 μg i.p. every other day, to day 14): significantly reduces the symptoms of EAE
- activation of Nurr1/RXR permissive heterodimer (Nurr1/RXR heterodimer): selectively activates
- OPC differentiation into oligodendrocytes (EGFP positive cells compared to DMSO) ([3]; all concentrations except the lowest (1^−6 μM)): significant increase; also recorded: dose dependent increase
- total cell number and pyknotic cells ([3]; compared to controls): did not show any differences
- Mbp expression (real-time qPCR of lesion samples) [4]: increase
- Nkx2.2+ oligodendrocyte precursor cells (OPCs) in lesions [4]: increased
- Pdgfra expression (real-time qPCR of lesion samples) [4]: increase
- density of CC1+ differentiated oligodendrocytes in lesions [4]: increased
- density of Olig2+ oligodendrocyte lineage cells in lesions [4]: increased
- remyelinated axons (ultrastructural analyses of CCP lesions) [4]: more remyelinated axons than vehicle treatment
- size of myelinated axons in the corpus callosum [5]: significantly increases; also recorded: shift in distribution to larger axon diameter
- terminal body weights ([6]; ANOVA, IRX4204 or vehicle groups): no significant difference
- number of SMI32 positive axonal ovoids in corpus callosum ([6]; IRX4204 10 mg/kg PO, T4 20 ng/g SQ, daily 6 weeks, versus Vehicle, 10 mg/kg): trend towards decreased number of axonal ovoids but was not statistically different from the Vehicle; also recorded: trend towards decrease in axonal ovoids, but it was statistically not different from vehicle
- microglial/macrophage activation (Iba1 staining) in corpus callosum ([6]; daily 6 weeks, versus vehicle): no difference
- decrease in T4 levels compared to vehicle control animals ([6]; terminal blood draw): ~50%
- Change in TSH ([7]; 5 mg/day): −28.9%
- Total Motor Change ([7]; 5 mg/day): −31.4%
- Total UPDRS Change ([7]; 5 mg/day): −18.7%
- Change in TSH ([7]; 10 mg/day): −36.6%
- Total UPDRS Change ([7]; 10 mg/day): −13.6%
- reduction in Total UPDRS scores ([7]; 20 mg/day): 6.6%
- reduction of plasma T4 ([7]; 20 mg/day): 98.8%
- Change in TSH ([7]; 20 mg/day): −98.8%
- Total Motor Change ([7]; 20 mg/day): −14.5%
- mean body weight [8]: 157.17±2.93%
- oligodendrocyte production (EGFP+ oligodendrocytes) [9]: clear dose-responses

Structure (SMILES): N[C@@H](Cc1cc(I)c(Oc2ccc(O)c(I)c2)c(I)c1)C(=O)O [T3, triiodothyronine, reference compound]
- oligodendrocyte production (EGFP+ oligodendrocytes) [9]: clear dose-responses
